Laboratory results as given in US4327097A, “Novel penicillins” (Toyama Chemical Co., Ltd., priority 1974, dated 1982).
Values after ≈ are worked out from the molar mass of the structure shown.

Key:
Assay type in all cases: cell-based
Proteus morganii = test: MIC against clinical isolates; settings: Table 6-5, clinical isolate; unit assumed
Proteus vulgaris = test: MIC against clinical isolates; settings: Table 6-5, clinical isolate; unit assumed
Proteus rettgeri = test: MIC against clinical isolates; settings: Table 6-5, clinical isolate; unit assumed
Proteus mirabilis = test: MIC against clinical isolates; settings: Table 6-5, clinical isolate; unit assumed
Escherichia coli = test: MIC against clinical isolates; settings: Table 6-2, clinical isolate; unit assumed
Klebsiella pneumoniae [1] = test: MIC against clinical isolates; settings: Table 6-4, clinical isolate; unit assumed
Staphylococcus aureus = test: MIC against clinical isolates; settings: Table 6-1, clinical isolate; unit assumed
[2] = test system: Pseudomonas aeruginosa I.F.O.; test: MIC, plate method, standard strains; settings: Table 4, standard strain; unit assumed
In short: (§1)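 Plates of Heart infusion agar (pH 7.4) containing compound dilutions; 10^4-cell inoculum, from 10^6 cells/ml; lowest concentration preventing growth reported.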

Escherichia coli NIHJ = test: MIC, plate method, standard strains; settings: Table 4, standard strain; unit assumed
In short: as §1

[3] = test system: Staphylococcus aureus 209p; test: MIC, plate method, standard strains; settings: Table 4, standard strain; unit assumed
In short: as §1

Proteus vulgaris 3027 = test: MIC, plate method, standard strains; settings: Table 4, standard strain; unit assumed
In short: as §1

Klebsiella pneumoniae [4] = test: MIC, plate method, standard strains; settings: Table 4, standard strain; unit assumed
In short: as §1

Pseudomonas aeruginosa = test: MIC against clinical isolates; settings: unit assumed; for MIC Pseudomonas aeruginosa GN / MIC Pseudomonas aeruginosa GN4 / MIC Pseudomonas aeruginosa GN 82 / MIC Pseudomonas aeruginosa GN 221 / MIC Pseudomonas aeruginosa GN 376 / MIC Pseudomonas aeruginosa GN 1035 / MIC Pseudomonas aeruginosa GN 1091 / MIC Pseudomonas aeruginosa GN 2565: Table 6-3, clinical isolate; for MIC Pseudomonas aeruginosa GN: strain number not given; for MIC Pseudomonas aeruginosa S-1: Table 6-4, clinical isolate

| Structure (SMILES) | MIC Proteus morganii (Proteus morganii) | MIC Proteus vulgaris (Proteus vulgaris) | MIC Proteus rettgeri (Proteus rettgeri) | MIC Proteus mirabilis (Proteus mirabilis) | MIC Escherichia coli GN 3435 (Escherichia coli) | MIC Escherichia coli GN 3452 (Escherichia coli) | MIC Escherichia coli GN 3465 (Escherichia coli) | MIC Escherichia coli K-2 (Escherichia coli) | MIC Escherichia coli K-4 (Escherichia coli) | MIC Klebsiella pneumoniae GN 917 (Klebsiella pneumoniae [1]) | MIC Klebsiella pneumoniae GN 4081 (Klebsiella pneumoniae [1]) | MIC Staphylococcus aureus F-1 (Staphylococcus aureus) | MIC Staphylococcus aureus MS 8588 (Staphylococcus aureus) | MIC Staphylococcus aureus MS 8596 (Staphylococcus aureus) | MIC Staphylococcus aureus MS 8619 (Staphylococcus aureus) | MIC Staphylococcus aureus MS 8684 (Staphylococcus aureus) | MIC Pseudomonas aeruginosa I.F.O. [2] | MIC Escherichia coli NIHJ (Escherichia coli NIHJ) | MIC Staphylococcus aureus 209p [3] | MIC Proteus vulgaris 3027 (Proteus vulgaris 3027) | other results |
| --- | --- | --- | --- | --- | --- | --- | --- | --- | --- | --- | --- | --- | --- | --- | --- | --- | --- | --- | --- | --- | --- |
| CCN1CCN(C(=O)NC(C(=O)NC2C(=O)N3C(C(=O)O)=C(CSc4nnnn4CC)CSC23)c2ccc(O)cc2)C(=O)C1=O (single isomer, unassigned) [Compound No. 78] | 1.56 µg/mL (≈ 2.36 µM) | 0.39 µg/mL (≈ 0.591 µM) | 1.56 µg/mL (≈ 2.36 µM) | 1.56 µg/mL (≈ 2.36 µM) | 0.39 µg/mL (≈ 0.591 µM) | 0.39 µg/mL (≈ 0.591 µM) | 1.56 µg/mL (≈ 2.36 µM) | 0.78 µg/mL (≈ 1.18 µM) | 0.39 µg/mL (≈ 0.591 µM) | 0.39 µg/mL (≈ 0.591 µM) | 3.13 µg/mL (≈ 4.74 µM) | 3.13 µg/mL (≈ 4.74 µM) | 3.13 µg/mL (≈ 4.74 µM) | 3.13 µg/mL (≈ 4.74 µM) | 1.56 µg/mL (≈ 2.36 µM) | 1.56 µg/mL (≈ 2.36 µM) | 12.5 µg/mL (≈ 18.9 µM) | < 0.1 µg/mL | 3.13 µg/mL (≈ 4.74 µM) | 0.79 µg/mL (≈ 1.2 µM) | MIC Klebsiella pneumoniae (Klebsiella pneumoniae [4]): 0.2 µg/mL (≈ 0.303 µM); MIC Pseudomonas aeruginosa GN (Pseudomonas aeruginosa): 12.5 µg/mL (≈ 18.9 µM); MIC Pseudomonas aeruginosa GN4 (Pseudomonas aeruginosa): 25 µg/mL (≈ 37.9 µM); MIC Pseudomonas aeruginosa GN 82 (Pseudomonas aeruginosa): 12.5 µg/mL (≈ 18.9 µM); MIC Pseudomonas aeruginosa GN 221 (Pseudomonas aeruginosa): 6.25 µg/mL (≈ 9.47 µM); MIC Pseudomonas aeruginosa GN 376 (Pseudomonas aeruginosa): 12.5 µg/mL (≈ 18.9 µM); MIC Pseudomonas aeruginosa GN 1035 (Pseudomonas aeruginosa): 25 µg/mL (≈ 37.9 µM); MIC Pseudomonas aeruginosa GN 1091 (Pseudomonas aeruginosa): 25 µg/mL (≈ 37.9 µM); MIC Pseudomonas aeruginosa GN 2565 (Pseudomonas aeruginosa): 12.5 µg/mL (≈ 18.9 µM); MIC Pseudomonas aeruginosa S-1 (Pseudomonas aeruginosa): 25 µg/mL (≈ 37.9 µM) |
| CCN1CCN(C(=O)NC(C(=O)NC2C(=O)N3C(C(=O)O)=C(CSc4nncs4)CSC23)c2ccc(O)cc2)C(=O)C1=O (single isomer, unassigned) [Compound No. 79] | 1.56 µg/mL (≈ 2.41 µM) | 0.39 µg/mL (≈ 0.602 µM) | 3.13 µg/mL (≈ 4.83 µM) | 1.56 µg/mL (≈ 2.41 µM) | 0.39 µg/mL (≈ 0.602 µM) | 0.39 µg/mL (≈ 0.602 µM) | 3.13 µg/mL (≈ 4.83 µM) | 1.56 µg/mL (≈ 2.41 µM) | 0.78 µg/mL (≈ 1.2 µM) | 0.78 µg/mL (≈ 1.2 µM) | 12.5 µg/mL (≈ 19.3 µM) | 1.56 µg/mL (≈ 2.41 µM) | 3.13 µg/mL (≈ 4.83 µM) | 3.13 µg/mL (≈ 4.83 µM) | 1.56 µg/mL (≈ 2.41 µM) | 1.56 µg/mL (≈ 2.41 µM) | 3.13 µg/mL (≈ 4.83 µM) | < 0.1 µg/mL | 1.57 µg/mL (≈ 2.42 µM) | 3.13 µg/mL (≈ 4.83 µM) | MIC Klebsiella pneumoniae (Klebsiella pneumoniae [4]): 0.79 µg/mL (≈ 1.22 µM); MIC Pseudomonas aeruginosa GN4 (Pseudomonas aeruginosa): 12.5 µg/mL (≈ 19.3 µM); MIC Pseudomonas aeruginosa GN 82 (Pseudomonas aeruginosa): 12.5 µg/mL (≈ 19.3 µM); MIC Pseudomonas aeruginosa GN 221 (Pseudomonas aeruginosa): 6.25 µg/mL (≈ 9.65 µM); MIC Pseudomonas aeruginosa GN 376 (Pseudomonas aeruginosa): 6.25 µg/mL (≈ 9.65 µM); MIC Pseudomonas aeruginosa GN 1035 (Pseudomonas aeruginosa): 25 µg/mL (≈ 38.6 µM); MIC Pseudomonas aeruginosa GN 1091 (Pseudomonas aeruginosa): 12.5 µg/mL (≈ 19.3 µM); MIC Pseudomonas aeruginosa GN 2565 (Pseudomonas aeruginosa): 25 µg/mL (≈ 38.6 µM); MIC Pseudomonas aeruginosa S-1 (Pseudomonas aeruginosa): 25 µg/mL (≈ 38.6 µM) |
| Cn1nnnc1SCC1=C(C(=O)O)N2C(=O)C(NC(=O)C(NC(=O)N3CCN(CCO)C(=O)C3=O)c3ccccc3)C2SC1 (single isomer, unassigned) [Compound No. 82] | 1.56 µg/mL (≈ 2.42 µM) | 0.78 µg/mL (≈ 1.21 µM) | 6.25 µg/mL (≈ 9.68 µM) | 3.13 µg/mL (≈ 4.85 µM) | 1.56 µg/mL (≈ 2.42 µM) | 1.56 µg/mL (≈ 2.42 µM) | 6.25 µg/mL (≈ 9.68 µM) | 6.25 µg/mL (≈ 9.68 µM) | 1.56 µg/mL (≈ 2.42 µM) | 1.56 µg/mL (≈ 2.42 µM) | 6.25 µg/mL (≈ 9.68 µM) | 3.13 µg/mL (≈ 4.85 µM) | 3.13 µg/mL (≈ 4.85 µM) | 3.13 µg/mL (≈ 4.85 µM) | 1.56 µg/mL (≈ 2.42 µM) | 1.56 µg/mL (≈ 2.42 µM) | 25 µg/mL (≈ 38.7 µM) | < 0.1 µg/mL | 1.57 µg/mL (≈ 2.43 µM) | 0.79 µg/mL (≈ 1.22 µM) | MIC Klebsiella pneumoniae (Klebsiella pneumoniae [4]): 0.79 µg/mL (≈ 1.22 µM); MIC Pseudomonas aeruginosa GN (Pseudomonas aeruginosa): 50 µg/mL (≈ 77.4 µM); MIC Pseudomonas aeruginosa GN4 (Pseudomonas aeruginosa): 50 µg/mL (≈ 77.4 µM); MIC Pseudomonas aeruginosa GN 82 (Pseudomonas aeruginosa): 50 µg/mL (≈ 77.4 µM); MIC Pseudomonas aeruginosa GN 221 (Pseudomonas aeruginosa): 25 µg/mL (≈ 38.7 µM); MIC Pseudomonas aeruginosa GN 376 (Pseudomonas aeruginosa): 25 µg/mL (≈ 38.7 µM); MIC Pseudomonas aeruginosa GN 1035 (Pseudomonas aeruginosa): 50 µg/mL (≈ 77.4 µM); MIC Pseudomonas aeruginosa GN 1091 (Pseudomonas aeruginosa): 50 µg/mL (≈ 77.4 µM); MIC Pseudomonas aeruginosa GN 2565 (Pseudomonas aeruginosa): 50 µg/mL (≈ 77.4 µM); MIC Pseudomonas aeruginosa S-1 (Pseudomonas aeruginosa): 100 µg/mL (≈ 155 µM) |
